Assay results taken from US8975235B2, “Lysophosphatidic acid receptor antagonists” (InterMune, Inc., priority 2011, dated 2015).

Biological target: Human LPA1 (Homo sapiens, UniProt Q92633)
Assay: Beta-Arrestin based assay for human LPA1R antagonists (PathHunter)
Assay type: cell-based
Design: host or cells: CHO
Settings: CHO cells stably expressing ProLink tagged human LPA1R; agonist LPA 0.5 micromolar
Procedure: Beta-Arrestin Based Assays for Human LPA1R Antagonists and Agonists
A CHO cell line stably expressing the ProLink™ tagged human LPA1R was obtained from DiscoverX Inc, Fremont, Calif. In this system, β-Arrestin was fused to an N-terminal deletion mutant of β-galactosidase (termed the enzyme acceptor or EA), the human LPA1R was fused to a smaller (42 amino acids) weakly complementing fragment termed ProLink™. […] Cell handling and assays were performed according to protocols specified in the PathHunter® assays kits (DiscoverX, Fremont, Calif.). Assays were performed in quadruplicate in white 384 well plates. End point luminescence data were plotted and fit to a 4 parameter logistic function to obtain IC50 values. For antagonist assays, an […] concentration of agonist (LPA) equal to 0.5 micromolar was used.

Chain of Human LPA1 (Q92633 whole entry): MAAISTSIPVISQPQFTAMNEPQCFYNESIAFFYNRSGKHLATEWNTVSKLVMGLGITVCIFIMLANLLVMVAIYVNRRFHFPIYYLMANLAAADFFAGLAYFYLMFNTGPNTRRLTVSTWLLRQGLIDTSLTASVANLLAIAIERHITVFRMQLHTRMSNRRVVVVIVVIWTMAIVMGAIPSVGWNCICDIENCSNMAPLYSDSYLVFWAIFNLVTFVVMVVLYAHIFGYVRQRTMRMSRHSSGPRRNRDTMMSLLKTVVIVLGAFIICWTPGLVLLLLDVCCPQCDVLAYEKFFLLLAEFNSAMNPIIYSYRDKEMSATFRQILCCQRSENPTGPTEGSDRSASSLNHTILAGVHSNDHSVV

EC50	SMILES
50 to 500 nM	Cc1nsc(-c2ccc(-c3ccc(C4(C(=O)O)CC4)cc3)cc2)c1NC(=O)O[C@H](C)c1ccccn1 [Compound 84]
< 50 nM	Cc1nsc(-c2ccc3cc(C#CC4(C(=O)O)CC4)ccc3c2)c1NC(=O)O[C@H](C)c1ccccc1Cl [Compound 87]
50 to 500 nM	Cc1nsc(-c2ccc3cc(C#CC4(C(=O)O)CC4)ccc3c2)c1NC(=O)O[C@H](C)c1ccccc1 [Compound 88]
50 to 500 nM	Cc1nsc(-c2ccc3cc(C#CC4(C(=O)O)CC4)ccc3c2)c1NC(=O)OCc1ccccc1 [Compound 89]
50 to 500 nM	Cc1nsc(C#Cc2ccc3cc(CC(=O)O)ccc3c2)c1NC(=O)O[C@H](C)c1ccccc1 [Compound 90]
> 500 nM	Cc1nsc(C#Cc2ccc3cc(CC(=O)O)ccc3c2)c1NC(=O)OCc1ccccc1 [Compound 91]
< 50 nM	Cc1nsc(C#Cc2ccc3cc(C4(C(=O)O)CC4)ccc3c2)c1NC(=O)O[C@H](C)c1ccccc1 [Compound 92]
< 50 nM	Cc1nsc(C#Cc2ccc3cc(C4(C(=O)O)CC4)ccc3c2)c1NC(=O)O[C@H](C)c1ccccc1Cl [Compound 93]
50 to 500 nM	Cc1nsc(C#Cc2ccc3cc(CC(=O)O)ccc3c2)c1NC(=O)O[C@H](C)c1ccccc1Cl [Compound 94]
50 to 500 nM	C[C@@H](OC(=O)Nc1scnc1-c1ccc(-c2ccc(C3(C(=O)O)CC3)cc2)cc1)c1ccccc1 [Compound 106]
50 to 500 nM	C[C@@H](OC(=O)Nc1ncsc1-c1ccc(-c2ccc(C3(C(=O)O)CC3)cc2)cc1)c1ccccc1 [Compound 109]
< 50 nM	C[C@@H](OC(=O)Nc1c(Cl)nsc1-c1ccc(-c2ccc(C3(C(=O)O)CC3)cc2)cc1)c1ccccc1 [Compound 112]
< 50 nM	C[C@@H](OC(=O)Nc1cnsc1-c1ccc(-c2ccc(C3(C(=O)O)CC3)cc2)cc1)c1ccccc1 [Compound 114]
< 50 nM	Cc1cc(-c2ccc(C3(C(=O)O)CC3)cc2)ccc1-c1snc(C)c1NC(=O)O[C@H](C)c1ccccc1Cl [Compound 115]
< 50 nM	Cc1cc(-c2snc(C)c2NC(=O)O[C@H](C)c2ccccc2Cl)ccc1-c1ccc(C2(C(=O)O)CC2)cc1 [Compound 116]
< 50 nM	Cc1nsc(-c2ccc(-c3ccc(C4(C(=O)O)CC4)cc3)c(F)c2)c1NC(=O)O[C@H](C)c1ccccc1Cl [Compound 117]

EC50	SMILES
< 50 nM	Cc1nsc(-c2ccc(-c3ccc(C4(C(=O)O)CC4)cc3)cc2F)c1NC(=O)O[C@H](C)c1ccccc1Cl [Compound 119]
< 50 nM	Cc1nsc(-c2cc(Cl)c(-c3ccc(C4(C(=O)O)CC4)cc3)cc2F)c1NC(=O)O[C@H](C)c1ccccc1Cl [Compound 120]
< 50 nM	Cc1cc(-c2snc(C)c2NC(=O)O[C@H](C)c2ccccc2Cl)c(F)cc1-c1ccc(C2(C(=O)O)CC2)cc1 [Compound 121]
< 50 nM	Cc1cc(-c2snc(C)c2NC(=O)O[C@H](C)c2ccccc2Cl)c(Cl)cc1-c1ccc(C2(C(=O)O)CC2)cc1 [Compound 122]
50 to 500 nM	Cc1cc(-c2snc(C)c2NC(=O)O[C@H](C)c2ccccc2Cl)c(C)cc1-c1ccc(C2(C(=O)O)CC2)cc1 [Compound 123]
< 50 nM	Cc1cc(-c2ccc(C3(C(=O)O)CC3)cc2)c(F)cc1-c1snc(C)c1NC(=O)O[C@H](C)c1ccccc1Cl [Compound 124]
50 to 500 nM	Cc1nsc(-c2ccc(-c3ccc(C4(C(=O)O)CCCC4)cc3)cc2)c1NC(=O)O[C@H](C)c1ccccc1 [Compound 125]
50 to 500 nM	Cc1nsc(-c2ccc(-c3ccc(C4(C(=O)O)CCCCC4)cc3)cc2)c1NC(=O)O[C@H](C)c1ccccc1 [Compound 126]
50 to 500 nM	Cc1nsc(-c2ccc(-c3ccc(C4(C(=O)O)CCC4)cc3)cc2)c1NC(=O)O[C@H](C)c1ccccc1 [Compound 127]
50 to 500 nM	Cc1noc(C#Cc2ccc3cc(CC(=O)O)ccc3c2)c1NC(=O)O[C@H](C)c1ccccc1 [Compound 128]
50 to 500 nM	Cc1noc(C#Cc2ccc3cc(CC(=O)O)ccc3c2)c1NC(=O)O[C@H](C)c1ccccc1Cl [Compound 129]
< 50 nM	Cc1noc(C#Cc2ccc3cc(C4(C(=O)O)CC4)ccc3c2)c1NC(=O)O[C@H](C)c1ccccc1 [Compound 130]
< 50 nM	Cc1noc(C#Cc2ccc3cc(C4(C(=O)O)CC4)ccc3c2)c1NC(=O)O[C@H](C)c1ccccc1Cl [Compound 131]
< 50 nM	Cc1noc(-c2ccc3cc(C#CC4(C(=O)O)CC4)ccc3c2)c1NC(=O)O[C@H](C)c1ccccc1Cl [Compound 141]
< 50 nM	Cc1noc(-c2ccc3cc(C#CC4(C(=O)O)CC4)ccc3c2)c1NC(=O)OCc1ccccc1 [Compound 142]
50 to 500 nM	Cc1nc(-c2ccc(-c3ccc(C4(C(=O)O)CC4)cc3)cc2)c(NC(=O)O[C@H](C)c2ccccc2)o1 [Compound 154]

Continued, compound first:

SMILES	EC50
Cc1nsc(-c2ccc(-c3ccc(C4(C(=O)O)CC4)cc3)cc2)c1NC(=O)OCc1ccccn1 [Compound 72]	> 500 nM
Cc1nsc(-c2ccc(-c3ccc(C4(C(=O)O)CC4)cc3)cc2)c1NC(=O)OCc1ccccc1F [Compound 73]	50 to 500 nM
Cc1noc(-c2ccc(-c3ccc(C4(C(=O)O)CC4)cc3)cc2)c1NC(=O)OC1(c2ccccc2)CC1 [Compound 76]	50 to 500 nM
Cc1noc2cc(-c3ccc(CC(=O)O)cc3)cc(NC(=O)O[C@H](C)c3ccccc3Cl)c12 [Compound 77]	> 500 nM
Cc1ccccc1COC(=O)Nc1c(C)nsc1-c1ccc(-c2ccc(C3(C(=O)O)CC3)cc2)cc1 [Compound 85]	50 to 500 nM
Cc1nsc(-c2ccc(-c3ccc(C4(C(=O)O)CC4)cc3)cc2)c1NC(=O)OC(C)C [Compound 95]	> 500 nM
Cc1nsc(-c2ccc(-c3ccc(C4(C(=O)O)CC4)cc3)cc2)c1NC(=O)OCc1cccc(F)c1 [Compound 96]	< 50 nM
Cc1nsc(-c2ccc(-c3ccc(C4(C(=O)O)CC4)cc3)cc2)c1NC(=O)OCc1cccc(Cl)c1 [Compound 97]	< 50 nM
Cc1nsc(-c2ccc(-c3ccc(C4(C(=O)O)CC4)cc3)cc2)c1NC(=O)OCc1ccc(F)cc1 [Compound 98]	50 to 500 nM
Cc1nsc(-c2ccc(-c3ccc(C4(C(=O)O)CC4)cc3)cc2)c1NC(=O)OCc1ccc(Cl)cc1Cl [Compound 99]	> 500 nM
Cc1nsc(-c2ccc(-c3ccc(C4(C(=O)O)CC4)cc3)cc2)c1NC(=O)OCc1ccc(Cl)cc1 [Compound 100]	50 to 500 nM
Cc1nsc(-c2ccc(-c3ccc(C4(C(=O)O)CC4)cc3)cc2)c1NC(=O)OCc1cccc(Cl)c1Cl [Compound 101]	> 500 nM
Cc1nsc(-c2ccc(-c3ccc(C4(C(=O)O)CC4)cc3)cc2)c1NC(=O)OCc1ccc(F)cc1Cl [Compound 102]	50 to 500 nM
Cc1nsc(-c2ccc(-c3ccc(C4(C(=O)O)CC4)cc3)cc2)c1NC(=O)OCc1cccc(F)c1Cl [Compound 103]	50 to 500 nM
Cc1nsc(-c2ccc(-c3ccc4c(ccn4CC(=O)O)c3)cc2)c1NC(=O)O[C@H](C)c1ccccc1Cl [Compound 104]	> 500 nM
O=C(Nc1scnc1-c1ccc(-c2ccc(C3(C(=O)O)CC3)cc2)cc1)OCc1ccccc1 [Compound 108]	50 to 500 nM
C[C@@H](OC(=O)Nc1ncsc1-c1ccc(-c2ccc(C3(C(=O)O)CC3)cc2)cc1)c1ccccc1Cl [Compound 110]	50 to 500 nM

SMILES	EC50
O=C(Nc1ncsc1-c1ccc(-c2ccc(C3(C(=O)O)CC3)cc2)cc1)OCc1ccccc1 [Compound 111]	> 500 nM
Cc1cc(-c2ccc(-c3snc(C)c3NC(=O)O[C@H](C)c3ccccc3Cl)cc2)ccc1CC(=O)O [Compound 118]	50 to 500 nM
Cc1noc(-c2ccc(-c3ccc(N4CC[C@H](C(=O)O)C4)cc3)cc2)c1NC(=O)O[C@H](C)c1ccccc1 [Compound 132]	50 to 500 nM
Cc1noc(-c2ccc(-c3ccc(N4CC[C@@H](C(=O)O)C4)cc3)cc2)c1NC(=O)O[C@H](C)c1ccccc1 [Compound 133]	> 500 nM
Cc1noc(-c2ccc(-c3ccc(N4CC[C@@H](C(=O)O)C4)cc3)cc2)c1NC(=O)O[C@H](C)c1ccccc1Cl [Compound 134]	50 to 500 nM
Cc1noc(-c2ccc(-c3ccc(N4CC[C@H](C(=O)O)C4)cc3)cc2)c1NC(=O)O[C@H](C)c1ccccc1Cl [Compound 135]	50 to 500 nM
Cc1noc(-c2ccc(-c3ccc(N4CCC[C@@H](C(=O)O)C4)cc3)cc2)c1NC(=O)O[C@H](C)c1ccccc1 [Compound 136]	50 to 500 nM
Cc1noc(-c2ccc(-c3ccc(N4CCC[C@H](C(=O)O)C4)cc3)cc2)c1NC(=O)O[C@H](C)c1ccccc1 [Compound 137]	50 to 500 nM
Cc1noc(-c2ccc(-c3ccc(N4CCC[C@@H](C(=O)O)C4)cc3)cc2)c1NC(=O)O[C@H](C)c1ccccc1Cl [Compound 138]	50 to 500 nM
Cc1noc(-c2ccc(-c3ccc(N4CCC[C@H](C(=O)O)C4)cc3)cc2)c1NC(=O)O[C@H](C)c1ccccc1Cl [Compound 139]	50 to 500 nM
C[C@@H](OC(=O)Nc1ncoc1-c1ccc(-c2ccc(C3(C(=O)O)CC3)cc2)cc1)c1ccccc1 [Compound 143]	50 to 500 nM
C[C@@H](OC(=O)Nc1ncoc1-c1ccc(-c2ccc(C3(C(=O)O)CC3)cc2)cc1)c1ccccc1Cl [Compound 144]	< 50 nM
O=C(Nc1ncoc1-c1ccc(-c2ccc(C3(C(=O)O)CC3)cc2)cc1)OCc1ccccc1 [Compound 145]	50 to 500 nM
O=C(Nc1ocnc1-c1ccc(-c2ccc(C3(C(=O)O)CC3)cc2)cc1)OCc1ccccc1 [Compound 148]	> 500 nM
C[C@@H](OC(=O)Nc1c(-c2ccc(-c3ccc(C4(C(=O)O)CC4)cc3)cc2)oc2cnccc12)c1ccccc1 [Compound 150]	< 50 nM
O=C(Nc1c(-c2ccc(-c3ccc(C4(C(=O)O)CC4)cc3)cc2)oc2cnccc12)OCc1ccccc1 [Compound 151]	50 to 500 nM
